Laboratory results published in paper PMC9371589 (Behavioural pharmacology, 2022).

Experiments:
Assay type in all cases: in vivo, rat
male Sprague-Dawley rats [1] = test: Rotarod motor coordination; conditions: 10 mg/kg i.p., 30 minutes before test; vehicle 193.6 ± 14.9
male Sprague-Dawley rats [2] = test: Complete Freund's Adjuvant; conditions: 48 hours after CFA injection (24 hours post-treatment)
male Sprague-Dawley rats [3] = test: Brennan model of incisional pain
male Sprague-Dawley rats [4] = test: Gastrointestinal transit of a charcoal meal; conditions: 30 mg/kg; vehicle 0.62 ± 0.02

CN1C(=O)CN=C(c2ccccc2)c2cc(Cl)ccc21 [Diazepam, diazepam]
time spent on the rotarod (male Sprague-Dawley rats [1]): 60.1 ± 23.7 s

O=C(O)Cc1ccccc1Nc1c(Cl)cccc1Cl [Diclofenac, diclofenac]
effect on edema (male Sprague-Dawley rats [2]): decreased edema

CN1CC[C@]23c4c5ccc(O)c4O[C@H]2[C@@H](O)C=C[C@H]3[C@H]1C5 [morphine]
effect of daily administration on anti-hyperalgesic effect (tolerance) (male Sprague-Dawley rats [3]; 5 mg/kg s.c. once a day for 7 consecutive days): blunted its effects on hyperalgesia
duration of anti-hyperalgesic effect (male Sprague-Dawley rats [3]; after single s.c. administration): < 6 h
relative distance traveled (gastrointestinal transit) (male Sprague-Dawley rats [4]): 0.22 ± 0.02
